Reference: patent publication US6399568B1, “Cyclic tetrapeptide derivatives and medicinal use thereof” (Japan Energy Corporation, priority 1997, dated 2002)
Non-standard residues stand in square brackets, D forms with d. Residues, ends and D or L forms follow the SMILES beside them. ξ: configuration not given here. *: point of attachment. d1Nal = N[C@H](Cc1cccc2ccccc12)C(=O)O; Asu = N[C@@H](CCCCCC(=O)O)C(=O)O; dTic = O=C(O)[C@H]1Cc2ccccc2CN1; Ile(3ξ) = CCC(C)[C@H](N)C(=O)O; Pip = O=C(O)[C@@H]1CCCCN1; dPip = O=C(O)[C@H]1CCCCN1; BrAc = O=C(CBr)*; Sar = CNCC(=O)O; For = O=C*; NHOH = ON*

What was measured:
B16/BL6 cells = assay: MHC class-I molecule expression promoting activity; format: cell-based, mouse; settings: for conc. for 2-fold expression (nM) mean: mean of a plurality of assays; for MHC class-I molecule expression promoting activity: allowed to act on animal cells (summary statement)
Experimental: The cancer cells used were mouse melanoma cells, B16/BL6 cells, provided by, the National Cancer Institute, U.S.A. Said cells were cultivated in MEM media supplemented with 10% FBS at 37° C. in the presence of 5% carbon dioxide in an humidified incubator.
A compound to be tested was preliminarily dissolved in dimethyl sulfoxide (DMSO) and adjusted to a concentration of 100 mM or 10 mM (source solution).
Said B16/BL6 cells were inoculated on 96 well microplate at a cell density of 5000 cells per well, each well containing 200 μl of said medium. […] Thereafter, each well was once washed with PBS (phosphate buffered saline) and floating cells and the medium were removed. Then, the well was treated with 0.1% glutaraldehyde solution for 3 minutes to fix the cells.
The amount of MHC class-I molecule expressed on the surface of the fixed cells was measured by the following method. Anti-H-2K^bD^bD^d antibody, which is an antibody against mouse MHC classI molecule (commercially available from Meiji Milk Co., Ltd), was used as a primary antibody, biotinylated anti-mouse IgG+M (commercially available from Chemicon) was used as a secondary antibody, and streptavidin-β-galactosidase conjugate (commercially available from BRL) was reacted as a labelling enzyme. The amount of the thus labelled enzyme β-galactosidase was measured in a microplate reader by recording the fluorescent intensity (excitation: 365 nm, fluorescence: 450 nm) derived from the enzymaticreaction product using 4-methylumbelliferyl-β-D-galactoside (commercially available from Nacalai Tesque) as a substrate. […] The value obtained by subtracting said background level from the, actually measured value (an apparent value including the background level) was the true measurement reflecting the amount of expressed MHC class-I molecule.
A group without the addition of any compound to be tested was used as a reference group and the measurement of MHC class-I molecule expressed in said group was used as a standard value. The amount of MHC class-I molecule expressed at a concentration of addition of each test compound is shown as a relative amount, said standard value taken as one (1). For each compound to be tested, various concentrations of addition were selected to investigate the dependency of MHC class-I molecule expression promoting action on the concentration of addition.

histone deacetylase = assay: Histone deacetylase enzyme inhibiting activity, synthetic peptide substrate; format: biochemical, mouse; settings: enzyme from B16/BL6 cells; [3H]acetylated histone H4 peptide; 37° C. 3 hours
Experimental: The preparation of histone deacetylase was performed essentially according to the method of Yoshida et al. (J. Biol. Chem., 265,17174-17179, 1990). The enzyme to be used was partially purified from B16/BL6 cells. The cells were suspended in HDA buffer (15 mM potassium phosphate, 5% glycerol, 0.2 mM EDTA, […], pH 7.5), homogenized and centrifuged (2500×g, 10 min) to collect the nuclei, which in turn were homogenized in the same buffer containing 1 M (NH4)2SO4. After ultrasonic disruption and centrifugation, the concentration of (NH4)2SO4 in the collected supernatant was increased to 3.5 M to precipitate histone deacetylase. This precipitate was redissolved in HDA buffer, subjected to gel filtration to replace the solvent with HDA buffer, and used as a crude histone deacetylase enzyme solution.
As a substrate, a synthetic substrate peptide, [^3H]acetylated histone H4 peptide was used. This [^3H]acetylated histone H4 peptide was obtained by synthesizing the N-terminal peptide of histone H4; […] (the C-terminal being cysteine) and radio-acetylating with ^3H -acetic anhydride.
An assay was performed by incubating the synthetic substrate solution and the enzyme solution at 37° C. for 3 hours in the presence of a compound to be tested (reaction volume, 100 μl). The reaction was stopped by adding 25 μl of 1 M HCl and 0.2 M acetic acid and [^3H]acetate excised by the enzyme reaction was extracted with ethyl acetate for radioactivity measurement. As a control group, the same procedure was repeated without addition of any test compound to the reaction system. The inhibiting activity was expressed by a concentration at which the histone deacetylase enzyme activity in the control group was inhibited by 50% (50% inhibiting concentration).

| Compound | conc. for 2-fold expression (nM) mean (B16/BL6 cells; 72 hours) | further results |
| --- | --- | --- |
| CC(=O)NC(CCCCCC(=O)NO)C(=O)NCc1ccccc1 (centres unmarked) [Ac-Asu(NHOH)-NH-Bzl, reference compound] | 2410 nM | – |
| CC(C)C[C@@H]1NC(=O)[C@H](Cc2cn(C=O)c3ccccc23)NC(=O)[C@H](CCCCCC(=O)NO)NC(=O)[C@H]2CCCCN2C1=O [HDA-16, cyclo(-L-Asu(NHOH)-L-Trp(CHO)-L-Leu-D-Pip-)] (cyclo([Asu](NHOH)W(For)L[dPip])) | toxic | – |
| O=C(CBr)NCCCC[C@@H]1NC(=O)[C@H]2CCCN2C(=O)[C@H](Cc2ccccc2)NC(=O)[C@H](Cc2ccccc2)NC1=O [HDA-26, cyclo(-L-Lys(BrAc)-L-Phe-L-Phe-D-Pro-)] (cyclo(FF[dP]K(BrAc))) | 5660 nM | – |
| CC(C)C[C@@H]1NC(=O)[C@H](Cc2c[nH]c3ccccc23)NC(=O)[C@H](CCCCCC(=O)NO)NC(=O)[C@H]2CCCCN2C1=O [HDA-33, cyclo(-L-Asu(NHOH)-L-Trp-L-Leu-D-Pip-)] (cyclo([Asu](NHOH)WL[dPip])) | weak | – |
| O=C(CCCCC[C@@H]1NC(=O)[C@@H](Cc2ccccc2)NC(=O)[C@H](Cc2ccccc2)NC(=O)[C@H]2CCCN2C1=O)NO [HDA-37, cyclo(-L-Asu(NHOH)-D-Pro-L-Phe-D-Phe-)] (cyclo([Asu](NHOH)[dP]F[dF])) | 320 nM | IC50 (histone deacetylase): 0.00916 µM |
| O=C(CCCCC[C@@H]1NC(=O)[C@@H]2CCCN2C(=O)[C@H](Cc2ccccc2)NC(=O)[C@@H](Cc2ccccc2)NC1=O)NO [HDA-38, cyclo(-L-Asu(NHOH)-D-Phe-L-Phe-L-Pro-)] (cyclo([Asu](NHOH)[dF]FP)) | 558 nM | IC50 (histone deacetylase): 0.00532 µM |
| O=C(CCCCC[C@@H]1NC(=O)[C@@H]2CCCN2C(=O)[C@@H](Cc2ccccc2)NC(=O)[C@H](Cc2ccccc2)NC1=O)NO [HDA-39, cyclo(-L-Asu(NHOH)-L-Phe-D-Phe-L-Pro-)] (cyclo([Asu](NHOH)F[dF]P)) | 65800 nM | IC50 (histone deacetylase): 0.226 µM |
| CN1CC(=O)N[C@@H](CCCCCC(=O)NO)C(=O)N[C@@H](Cc2ccccc2)C(=O)N[C@@H](Cc2ccccc2)C1=O [HDA-40, cyclo(-L-Asu(NHOH)-L-Phe-L-Phe-Sar-)] (cyclo([Asu](NHOH)FF[Sar])) | 748 nM | – |
| CCC(C)[C@@H]1NC(=O)[C@@H](Cc2ccc(OC)cc2)NC(=O)[C@H](CCCCC(=O)NO)NC(=O)[C@H]2CCCN2C1=O (stereo partly drawn) [HDA-42, cyclo(-L-Api(NHOH)-D-Tyr(Me)-L-Ile-D-Pro-)] | 512 nM | IC50 (histone deacetylase): 0.0538 µM |
| CCC(C)[C@@H]1NC(=O)[C@@H](Cc2ccc(OC)cc2)NC(=O)[C@H](CCCCCCC(=O)NO)NC(=O)[C@H]2CCCN2C1=O (stereo partly drawn) [HDA-43, cyclo(-L-Aaz(NHOH)-D-Tyr(Me)-L-Ile-D-Pro-)] | 155 nM | IC50 (histone deacetylase): 0.0339 µM |
| COc1ccc(C[C@H]2NC(=O)[C@H](CCCCCC(=O)NO)NC(=O)[C@H]3CCCN3C(=O)[C@H](C)NC2=O)cc1 [HDA-44, cyclo(-L-Asu(NHOH)-D-Tyr(Me)-L-Ala-D-Pro-)] (cyclo(A[dP][Asu](NHOH)[dY](Me))) | 35.00 nM | – |
| C[C@@H]1NC(=O)[C@@H](Cc2ccccc2)NC(=O)[C@H](CCCCCC(=O)NO)NC(=O)[C@H]2CCCN2C1=O [HDA-45, cyclo(-L-Asu(NHOH)-D-Phe-L-Ala-D-Pro-)] (cyclo(A[dP][Asu](NHOH)[dF])) | 23.1 nM | – |
| CCC(C)[C@@H]1NC(=O)[C@@H](Cc2ccccc2)NC(=O)[C@H](CCCCCC(=O)NO)NC(=O)[C@H]2CCCN2C1=O (stereo partly drawn) [HDA-46, cyclo(-L-Asu(NHOH)-D-Phe-L-Ile-D-Pro-)] (cyclo([Asu](NHOH)[dF][Ile(3ξ)][dP])) | 1.96 nM | – |
| CCC(C)[C@@H]1NC(=O)[C@@H](Cc2cccc3ccccc23)NC(=O)[C@H](CCCCCC(=O)NO)NC(=O)[C@H]2CCCN2C1=O (stereo partly drawn) [HDA-47, cyclo(-L-Asu(NHOH)-D-Naf-L-Ile-D-Pro-)] (cyclo([Asu](NHOH)[d1Nal][Ile(3ξ)][dP])) | 9.59 nM | – |
| CCC(C)[C@@H]1NC(=O)[C@@H](Cc2ccc3ccc4cccc5ccc2c3c45)NC(=O)[C@H](CCCCCC(=O)NO)NC(=O)[C@H]2CCCN2C1=O (stereo partly drawn) [HDA-48, cyclo(-L-Asu(NHOH)-D-Pya-L-Ile-D-Pro-)] | 0.846 nM | – |
| CC[C@H](C)[C@@H]1NC(=O)[C@@H](Cc2ccc(OC)cc2)NC(=O)[C@H](CCCCCC(=O)NO)NC(=O)[C@H]2Cc3ccccc3CN2C1=O [HDA-52, cyclo(-L-Asu(NHOH)-D-Tyr(Me)-L-Ile-D-Tic-)] (cyclo([Asu](NHOH)[dY](Me)I[dTic])) | 0.191 nM | IC50 (histone deacetylase): 0.00435 µM |
| CC(C)C[C@@H]1NC(=O)[C@@H](Cc2ccccc2)NC(=O)[C@H](CCCCCC(=O)NO)NC(=O)[C@@H]2CCCCN2C1=O [HDA-53, cyclo(-L-Asu(NHOH)-D-Phe-L-Leu-L-Pip-)] (cyclo([Asu](NHOH)[dF]L[Pip])) | 19.8 nM | – |
| O=C(CCCCCc1ccccc1)NO [Ph-(CH2)5-CONHOH, reference compound] | 11400 nM | – |
| O=C(NO)c1ccccc1 [benzohydroxamic acid, reference compound] | 35800 nM | – |
| O=C(O)c1ccccc1 [benzoic acid, reference compound] | >200000 nM | – |
| CCCC(=O)O [butyric acid, reference compound] | – | MHC class-I molecule expression promoting activity (B16/BL6 cells): exhibit the MHC class-I molecule expression promoting activity |
| NC(=O)c1cccnc1 [nicotinamide, reference compound] | >1000000 nM | – |
| O=C(NO)c1cccnc1 [nicotinic acid hydroxamate, reference compound] | 28000 nM | – |
| O=C(O)c1cccnc1 [nicotinic acid, reference compound] | >1000000 nM | – |
| CC(/C=C/C(=O)NO[C@@H]1O[C@H](CO)[C@@H](O)[C@H](O)[C@H]1O)=C\[C@@H](C)C(=O)c1ccc(N(C)C)cc1 [trichostatin C, reference compound] | 6.88 nM | MHC class-I molecule expression promoting activity (B16/BL6 cells): promotes the expression of MHC class-I molecule |
| cyclo (-L-Lys(Ac)L-Phe-L-Phe-D-Pro-)2 [HDA-7, reference compound] | 75000 nM | – |
| cyclo(-Asu(NHOH)-D-Phe-Phe-Sar-) [CHAP41] | 24.5 nM | – |
| cyclo(-Asu(NHOH)-Phe-Phe-D-Pro-)2 [HDA-19, reference compound] | weak | MHC class-I molecule expression promoting action (B16/BL6 cells; FIGS. 3 and 4, dependence on concentration of addition): low MHC class-I molecule expression promoting action was observed only at a high concentration of addition; Twice Promoting Concentration Cx2 (B16/BL6 cells; concentration at which MHC class-I expression is twice that without addition, 72 hours): >40 µM |
| cyclo(-L-Asu(NHOH)-D-Tyr(Me)-L-Ile-L-Pro-)2 [HDA-14, reference compound] | >10000 nM | – |
